Results: patent publication US20190046552A1, “COMPOSITIONS AND METHODS FOR THE TREATMENT OF HCV INFECTION” (priority 2015, published 2019)
Read-outs that look alike come from different tables or passages of the source.

What was measured:
[1] = Part B (MAD): plasma PK of Formula (IIa) and its metabolites after once-daily oral Formula (IIa) for 7 days, fasted; assay type: in vivo, human; conditions: for Cmax / half-life / AUC(0-t) / Tmax / AUC(0-inf): human, in vivo
Protocol: Part B was a blinded, randomized, placebo-controlled MAD study consisting of four cohorts of eight subjects randomized 6:2 to receive Formula (IIa) or placebo. […] To control for the possible effect of the IL28b genotype, the number of subjects with CC alleles was capped at three per cohort.
(§1) The starting dose was determined by the SRC based on review of all safety and any available PK/PD data from Part A. All subjects were dosed in the fasted state with Formula (IIa) daily, from Day 1 until […]. All subjects had nothing by mouth other than water for at least 10 hours prior to daily dosing and for 4 hours thereafter. In Part B, all subjects were administered the study medication orally with approximately 240 mL of water at the same time every day (+/−10 minutes).
A subset of blood samples shown in Table 3 above was used for the PK evaluation of plasma trough concentrations (Table 4). In addition, blood sample assessment of antiviral response was collected according to the following sampling schedule for Part B (Table 4).
All plasma PK calculations were performed using actual time points calculated relative to the time of last drug administration.
PK analysis was conducted for all enrolled subjects that received any dose of Formula (IIa) with sufficient plasma sample data to assess PK parameters. […] Data analysis was performed using a validated version of WinNonlin® Enterprise (Version 5.2) software, and summary tables and figures were generated using a validated version of WinNonlin® Autopilot™ (Version 1.1.1) and other reporting tools, including SigmaPlot®.

[2] = test system: HCV RNA; test: Part B (MAD): antiviral response (HCV RNA viral load) in treatment naive subjects with chronic HCV infection; assay type: in vivo, human
Excerpt: Part B was a blinded, randomized, placebo-controlled MAD study consisting of four cohorts of eight subjects randomized 6:2 to receive Formula (IIa) or placebo. A total of 30 treatment naïve subjects with CHC infection were enrolled in and a total of 29 subjects (22 subjects administered Formula (IIa) and 7 subjects administered placebo) completed Part B of the study. One subject administered placebo withdrew from the study on Day 2. Subjects infected with HCV-1 and HCV-3 genotypes were enrolled, and no subjects infected with HCV-2 participated in the study. To control for the possible effect of the IL28b genotype, the number of subjects with CC alleles was capped at three per cohort.
as §1
A subset of blood samples shown in Table 3 above was used for the PK evaluation of plasma trough concentrations (Table 4). […]

[3] = test system: HCV replicon cell line AVA5 [sub-genomic (CON1), genotype 1b]; test: 3-day HCV replicon antiviral assay (blot hybridization of intracellular HCV RNA), alone and with sofosbuvir; assay type: cell-based; conditions: Hepatitis C virus, Ava5, 72 h, read-out: IC50 (intracellular HCV RNA)

CO[C@H]1C(OP(=O)(OC[C@H]2O[C@@H](n3cnc4c(N)ncnc43)CC2O)SCOC(=O)OC(C)C)[C@@H](CO)O[C@H]1n1ccc(=O)[nH]c1=O (some centres unmarked) [Formula (IIa)]
Cmin ([1]; 200 mg Formula (IIa) QD oral, fasted, Day 7, plasma, arithmetic mean (CV %)): 0.00 (NC) ng/ml
Tmin ([1]; 200 mg Formula (IIa) QD oral, fasted, Day 7, plasma, median (min, max)): 0.00 h
Cmin ([1]; 400 mg Formula (IIa) QD oral, fasted, Day 7, plasma, arithmetic mean (CV %)): 0.00 (NC)^ ng/ml
Tmin ([1]; 400 mg Formula (IIa) QD oral, fasted, Day 7, plasma, median (min, max)): 0.00 h
Cmin ([1]; 900 mg Formula (IIa) QD oral, fasted, Day 7, plasma, arithmetic mean (CV %)): 0.00 (NC) ^ ng/ml
Tmin ([1]; 900 mg Formula (IIa) QD oral, fasted, Day 7, plasma, median (min, max)): 0.00 h
Cmax ([1]; 200 to 900 mg Formula (IIa), Days 1 and 7, read-out: Cmax range): 0.531 to 6.66 ng/mL
half-life ([1]; Day 1, 400 mg and 900 mg QD doses, read-out: mean plasma t1/2 range): 57.8 to 63 min
AUC(0-t) ([1]; Day 1, 200-900 mg Formula (IIa) QD, read-out: mean AUC0-24 range across dose levels): 0.512 to 7.91 ng·h/mL
Cmax ([1]; Day 1, 200-900 mg Formula (IIa) QD, read-out: mean Cmax range across dose levels): 0.531 to 3.75 ng/mL
Tmax ([1]; Day 1, 200-900 mg Formula (IIa) QD, read-out: median Tmax, range across dose levels): 1 to 1.51 h
half-life ([1]; Day 7, 400 mg and 900 mg QD doses, read-out: mean plasma t1/2 range): 41 to 64.2 min
AUC(0-t) ([1]; Day 7, 200-900 mg Formula (IIa) QD, read-out: mean AUC0-24 range across dose levels): 0.77 to 13.7 ng·h/mL
Cmax ([1]; Day 7, 200-900 mg Formula (IIa) QD, read-out: mean Cmax range across dose levels): 0.885 to 6.66 ng/mL
Tmax ([1]; Day 7, 200-900 mg Formula (IIa) QD, read-out: median Tmax, range across dose levels): 1 to 1.28 h
half-life ([1]; Days 1 and 7, across dose levels, read-out: terminal half-life (t1/2), range of means): 41 to 64.2 min
AUC(0-t) ([1]; po, 200 mg, 200 mg Formula (IIa) QD oral, fasted, Day 1, plasma, arithmetic mean (CV %), read-out: AUC0-24): 0.512 ng·h/mL
AUC(0-t) ([1]; po, 200 mg, 200 mg Formula (IIa) QD oral, fasted, Day 1, plasma, arithmetic mean (CV %), read-out: AUC0-t): 0.393 ng·h/mL
Cmax ([1]; po, 200 mg, 200 mg Formula (IIa) QD oral, fasted, Day 1, plasma, arithmetic mean (CV %), read-out: Cmax): 0.531 ng/mL
Tmax ([1]; po, 200 mg, 200 mg Formula (IIa) QD oral, fasted, Day 1, plasma, median (min, max), read-out: Tmax): 1 h
AUC(0-t) ([1]; po, 200 mg, 200 mg Formula (IIa) QD oral, fasted, Day 7, plasma, arithmetic mean (CV %), footnote: AUC0-24 = AUC0-t on Day 7, read-out: AUC0-24): 0.77 ng·h/mL
AUC(0-t) ([1]; po, 200 mg, 200 mg Formula (IIa) QD oral, fasted, Day 7, plasma, arithmetic mean (CV %), read-out: AUC0-t): 1.41 ng·h/mL
Cmax ([1]; po, 200 mg, 200 mg Formula (IIa) QD oral, fasted, Day 7, plasma, arithmetic mean (CV %), read-out: Cmax): 0.885 ng/mL
Tmax ([1]; po, 200 mg, 200 mg Formula (IIa) QD oral, fasted, Day 7, plasma, median (min, max), read-out: Tmax): 1 h
AUC(0-t) ([1]; po, 400 mg, 400 mg Formula (IIa) QD oral, fasted, Day 1, plasma, arithmetic mean (CV %), read-out: AUC0-24): 7.91 ng·h/mL
AUC(0-t) ([1]; po, 400 mg, 400 mg Formula (IIa) QD oral, fasted, Day 1, plasma, arithmetic mean (CV %), read-out: AUC0-t): 3.27 ng·h/mL
Cmax ([1]; po, 400 mg, 400 mg Formula (IIa) QD oral, fasted, Day 1, plasma, arithmetic mean (CV %), read-out: Cmax): 2.13 ng/mL
half-life ([1]; po, 400 mg, 400 mg Formula (IIa) QD oral, fasted, Day 1, plasma, arithmetic mean (CV %), read-out: t1/2 (converted)): 63 min
Tmax ([1]; po, 400 mg, 400 mg Formula (IIa) QD oral, fasted, Day 1, plasma, median (min, max), read-out: Tmax): 1.51 h
AUC(0-t) ([1]; po, 400 mg, 400 mg Formula (IIa) QD oral, fasted, Day 7, plasma, arithmetic mean (CV %), footnote: AUC0-24 = AUC0-t on Day 7, read-out: AUC0-24): 2.71 ng·h/mL
AUC(0-t) ([1]; po, 400 mg, 400 mg Formula (IIa) QD oral, fasted, Day 7, plasma, arithmetic mean (CV %), read-out: AUC0-t): 3.1 ng·h/mL
Cmax ([1]; po, 400 mg, 400 mg Formula (IIa) QD oral, fasted, Day 7, plasma, arithmetic mean (CV %), read-out: Cmax): 2.52 ng/mL
half-life ([1]; po, 400 mg, 400 mg Formula (IIa) QD oral, fasted, Day 7, plasma, arithmetic mean (CV %), read-out: t1/2 (converted)): 41 min
Tmax ([1]; po, 400 mg, 400 mg Formula (IIa) QD oral, fasted, Day 7, plasma, median (min, max), read-out: Tmax): 1.28 h
AUC(0-t) ([1]; po, 900 mg, 900 mg Formula (IIa) QD oral, fasted, Day 1, plasma, arithmetic mean (CV %), read-out: AUC0-24): 4.58 ng·h/mL
AUC(0-t) ([1]; po, 900 mg, 900 mg Formula (IIa) QD oral, fasted, Day 1, plasma, arithmetic mean (CV %), read-out: AUC0-t): 5.31 ng·h/mL
Cmax ([1]; po, 900 mg, 900 mg Formula (IIa) QD oral, fasted, Day 1, plasma, arithmetic mean (CV %), read-out: Cmax): 3.75 ng/mL
half-life ([1]; po, 900 mg, 900 mg Formula (IIa) QD oral, fasted, Day 1, plasma, arithmetic mean (CV %), read-out: t1/2 (converted)): 57.8 min
Tmax ([1]; po, 900 mg, 900 mg Formula (IIa) QD oral, fasted, Day 1, plasma, median (min, max), read-out: Tmax): 1.04 h
AUC(0-t) ([1]; po, 900 mg, 900 mg Formula (IIa) QD oral, fasted, Day 7, plasma, arithmetic mean (CV %), footnote: AUC0-24 = AUC0-t on Day 7, read-out: AUC0-24): 13.7 ng·h/mL
AUC(0-t) ([1]; po, 900 mg, 900 mg Formula (IIa) QD oral, fasted, Day 7, plasma, arithmetic mean (CV %), read-out: AUC0-t): 9.39 ng·h/mL
Cmax ([1]; po, 900 mg, 900 mg Formula (IIa) QD oral, fasted, Day 7, plasma, arithmetic mean (CV %), read-out: Cmax): 6.66 ng/mL
half-life ([1]; po, 900 mg, 900 mg Formula (IIa) QD oral, fasted, Day 7, plasma, arithmetic mean (CV %), read-out: t1/2 (converted)): 64.2 min
Tmax ([1]; po, 900 mg, 900 mg Formula (IIa) QD oral, fasted, Day 7, plasma, median (min, max), read-out: Tmax): 1.25 h
AUC(0-inf) ([1]; 400 mg Formula (IIa) QD oral, fasted, Day 1, plasma, arithmetic mean (CV %)): 8.04 ng·h/mL
AUC(0-inf) ([1]; 900 mg Formula (IIa) QD oral, fasted, Day 1, plasma, arithmetic mean (CV %)): 7.25 ng·h/mL
mean trough levels ([1]; multiple once daily oral Formula (IIa) QD for 7 days, fasted): BLQ
Peak individual viral load drop ([2]; 200 mg Formula (IIa) QD): 1.5 log10
Peak individual viral load drop ([2]; 400 mg Formula (IIa) QD): 1.9 log10
IC50 [3]: 31.7 nM
